Measurements: patent US20240417370A1, “LIPIDS FOR USE IN LIPID NANOPARTICLE FORMULATIONS” (Acuitas Therapeutics, Inc., priority 2023, published 2024)

Assays:
[1] = tested on: luciferase expression in the liver; assay: Luciferase mRNA in vivo evaluation using lipid nanoparticle compositions; set-up: species or system mice; settings: LNP-formulated lipid, tail vein injection, ng luciferase/g liver 4 hours after administration; for Liver Luc @ 0.3 mg/kg: 0.3 mg mRNA/kg; for Liver Luc @ 1.0 mg/kg: 1.0 mg mRNA/kg
Method: (§1) A lipid of structure (I), DSPC, cholesterol and PEG-lipid are solubilized in ethanol at a molar ratio of 50:10:38.5:1.5 or 47.5:10:40.7:1.8. Lipid nanoparticles (LNP) are prepared at a total lipid to mRNA weight ratio of approximately 10:1 to 40:1. Briefly, the mRNA is diluted to 0.2 mg/mL in 10 to 50 mM citrate buffer, pH 4 to 6 or 10 to 25 mM acetate buffer, pH 4. Syringe pumps are used to mix the ethanolic lipid solution with the mRNA aqueous solution at a ratio of about 1:5 to 1:3 (vol/vol) with total flow rates above 15 mL/min. The ethanol is then removed, and the external buffer replaced with PBS by dialysis. Finally, the lipid nanoparticles are filtered through a 0.2 µm pore sterile filter.
Studies are performed in 6-8-week-old female C57BL/6 mice (Charles River) 8-10-week-old CD-1 mice (Charles River or Inotiv) according to guidelines established by an institutional animal care committee (ACC) and the Canadian Council on Animal Care (CCAC). Varying doses of mRNA-lipid nanoparticle are systemically administered by tail vein injection and animals euthanized at a specific time point (e.g., 4 hours) post-administration. Liver and spleen are collected in pre-weighed tubes, weights determined, immediately snap frozen in liquid nitrogen, and stored at −80° C. until processing for analysis.
For liver, approximately 50 mg is dissected for analyses in a 2 mL FastPrep tubes (MP Biomedicals, Solon OH). ¼″ ceramic sphere (MP Biomedicals) is added to each tube and 500-750 μL of Glo Lysis Buffer—GLB (Promega, Madison WI) equilibrated to room temperature is added to liver tissue. Liver tissues are homogenized with the FastPrep24 instrument (MP Biomedicals) at 2×6.0 m/s for 15 seconds. Homogenate is incubated at room temperature for 5 minutes prior to a 1:4 to 1:6 dilution in GLB and assessed using SteadyGlo Luciferase assay system (Promega). Specifically, 50 μL of diluted tissue homogenate is reacted with 50 μL of SteadyGlo substrate, shaken for 10 seconds followed by 5-minute incubation and then luminescence was quantitated using a FilterMax F5 Microplate Reader (Molecular Devices, USA). The amount of protein assayed is determined by using the BCA protein assay kit (Pierce, Rockford, IL). Relative luminescence units (RLU) were then normalized to total μg protein or weight (g) of tissue assayed. To convert RLU to ng luciferase a standard curve is generated with QuantiLum Recombinant Luciferase (Promega).
The FLuc mRNA (L-7202) from Trilink Biotechnologies will express a luciferase protein, originally isolated from the firefly, Photinus pyralis. Flue is commonly used in mammalian cell culture to measure both gene expression and cell viability. It emits bioluminescence in the presence of the substrate, luciferin. This capped and polyadenylated mRNA is modified with 5-methoxyuridine and optimized for mammalian systems.
(§2) Representative compounds of the disclosure shown in Table 2 were formulated using the following molar ratio: 50% cationic lipid/10% distearoylphosphatidylcholine (DSPC)/38.5% Cholesterol/1.5% PEG lipid 2-[2-(ω-methoxy(polyethyleneglycol2000)ethoxy]-N,N-ditetradecylacetamide) or 47.5% cationic lipid/10% DSPC/40.7% Cholesterol/1.8% PEG lipid. Relative activity was determined by measuring luciferase expression in the liver 4 hours following administration via tail vein injection as described in Example 1 or by measuring the amount of human IgG in mouse serum as described in example 2. The activity was compared at a dose of 1.0 or 0.5 or 0.3 mg mRNA/kg and expressed as ng luciferase/g liver measured 4 hours after administration, as described in Example 1 or as μg IgG/mL serum measured 24 hours after administration, as described in Example 2. Compound numbers in Table 2 refer to the compound numbers of Table 1.

[2] = tested on: human IgG in mouse serum; assay: Immunoglobulin G (IgG) mRNA in vivo evaluation using lipid nanoparticle compositions; set-up: species or system mice; settings: LNP-formulated lipid, tail vein injection, μg IgG/mL serum 24 hours after administration; for Serum IgG @ 0.3 mg/kg: 0.3 mg mRNA/kg; for Serum IgG @ 1.0 mg/kg: 1.0 mg mRNA/kg
Method: as §1, with “4 to 6.” for “4.”
Studies are performed in 6-8-week-old CD-1/ICR mice (Envigo, Charles River, or Inotiv) according to guidelines established by an institutional animal care committee (ACC) and the Canadian Council on Animal Care (CCAC). Varying doses of mRNA-lipid nanoparticle are systemically administered by tail vein injection and animals euthanized at a specific time point (e.g., 24 hours) post-administration. The whole blood is collected, and the serum subsequentially separated by centrifuging the tubes of the whole blood at 2000×g for 10 minutes at 4° C. and stored at −80° C. until use for analysis.
For immunoglobulin G (IgG) ELISA (Life Diagnostics Human IgG ELISA kit), the serum samples are diluted at 100 to 20,000 folds with 1× diluent solution. 100 μL of diluted serum is dispensed into anti-human IgG coated 96-well plate in duplicate alongside human IgG standards and incubated in a plate shaker at 150 rpm at 25° C. for 45 minutes. The wells are washed 5 times with 1× wash solution using a plate washer (400 μL/well). 100 μL of HRP conjugate is added into each well and incubated in a plate shaker at the same condition above. The wells are washed 5 times again with 1× wash solution using a plate washer (400 μL/well). 100 μL of TMB reagent is added into each well and incubated in a plate shaker at the same condition above. The reaction is stopped by adding 100 μL of Stop solution to each well. The absorbance is read at 450 nm (A450) with a microplate reader. The amount of human IgG in mouse serum is determined by plotting A450 values for the assay standard against human IgG concentration.
as §2

Row | Structure (SMILES) | Liver Luc @ 0.3 mg/kg [1] [ng/g] | Liver Luc @ 1.0 mg/kg [1] [ng/g] | Serum IgG @ 0.3 mg/kg [2] [µg/mL] | Serum IgG @ 1.0 mg/kg [2] [µg/mL]
1 | CCCCCCCCCCN(CCCCCCCCCC)C(=O)CCCCCCCN(CCCCCCCC(=O)N(CCCCCCCCCC)CCCCCCCCCC)C[C@H]1C[C@H](O)C1 [(1R, 3R) I-2, 8,8′-((((1R,3R)-3-hydroxycyclobutyl)methyl)azanediyl)bis(N,N-didecyloctanamide)] | 12651 ± 3017 | 82113 ± 14450 |  | 
2 | CCCCCCCCCCN(CCCCCCCCCC)C(=O)CCCCCCCN(CCCCCCCC(=O)N(CCCCCCCCCC)CCCCCCCCCC)CC[C@H]1C[C@@H](O)C1 [(1S, 3R) I-1, 8,8′-((2-((1S,3R)-3-hydroxycyclobutyl)ethyl)azanediyl)bis(N,N-didecyloctanamide)] | 18927 ± 2102 | 79233 ± 12026 |  | 
3 | CCCCCCCCCCN(CCCCCCCCCC)C(=O)CCCCCCCN(CCCCCCCC(=O)N(CCCCCCCCCC)CCCCCCCCCC)C[C@H]1C[C@@H](O)C1 [(1S, 3S) I-2, 8,8′-((((1S,3S)-3-hydroxycyclobutyl)methyl)azanediyl)bis(N,N-didecyloctanamide)] | 10872 ± 2411 | 91854 ± 15303 |  | 
4 | CCCCCCCCCCN(CCCCCCCCCC)C(=O)CCCCCCCN(CCCCCCCC(=O)N(CCCCCCCCCC)CCCCCCCCCC)[C@H]1C[C@H](O)C[C@H](O)C1 [(1s, 3R, 5S) I-34, 8,8′-(((1s,3r,5s)-3,5-dihydroxycyclohexyl)azanediyl)bis(N,N-didecyloctanamide)] |  |  | 7.06 ± 4.68 | 57.07 ± 24.86
5 | CCCCCCCCCCN(CCCCCCCCCC)C(=O)CCCCCCCCCN(CCCCCC(=O)N(CCCCCCCCCC)CCCCCCCCCC)[C@H]1CC[C@@H](O)CC1 [(15, 4S) I-61, N,N-didecyl-10-((6-(didecylamino)-6-oxohexyl)((1s,4s)-4-hydroxycyclohexyl)amino)decanamide] |  |  | 40.66 ± 9.70 | 
6 | CCCCCCCCCCN(CCCCCCCCCC)C(=O)CCCCCCCN(CCCCCCCC(=O)N(CCCCCCCCCC)CCCCCCCCCC)CC1CCC(O)C1 (centres unmarked) [Compound I-4, 8,8′-(((3-hydroxycyclopentyl)methyl)azanediyl)bis(N,N-didecyloctanamide)] |  |  | 32.39 ± 3.12 | 155.20 ± 15.34
7 | CCCCCCCCCCN(CCCCCCCCCC)C(=O)CCCCCCCN(CCCCCCCC(=O)N(CCCCCCCCCC)CCCCCCCCCC)C1CCC(O)CC1 (centres unmarked) [Compound I-9, 8,8′-((4-hydroxycyclohexyl)azanediyl)bis(N,N-didecyloctanamide)] |  |  | 35.77 ± 4.50 | 
8 | CCCCCCCCCCN(CCCCCCCCCC)C(=O)CCCCCCCN(CCCCCCCC(=O)N(CCCCCCCCCC)CCCCCCCCCC)C1CC2(CC(O)C2)C1 (centres unmarked) [Compound I-36, 8,8′-((6-hydroxyspiro[3.3]heptan-2-yl)azanediyl)bis(N,N-didecyloctanamide)] |  |  | 25.76 ± 8.65 | 171.89 ± 45.93
